This data set has as its system Hepatotoxicity. Put plainly: Human drug-induced liver injury (DILI) modelling dataset from Ekins et al.

Residues, ends and D or L forms follow the SMILES beside them.

The values that follow come from ChEMBL document CHEMBL1697723, “A predictive ligand-based Bayesian model for human drug-induced liver injury” (Drug Metab Dispos, 2010).

On to `CC[C@H](C)[C@H](N)C1=N[C@H](C(=O)N[C@@H](CC(C)C)C(=O)N[C@H](CCC(=O)O)C(=O)N[C@H](C(=O)N[C@H]2CCCCNC(=O)[C@H](CC(N)=O)NC(=O)[C@@H](CC(=O)O)NC(=O)[C@H](Cc3cnc[nH]3)NC(=O)[C@@H](Cc3ccccc3)NC(=O)[C@H]([C@@H](C)CC)NC(=O)[C@@H](CCCN)NC2=O)[C@@H](C)CC)CS1` [BACITRACIN] (HELM PEPTIDE1{[CC[C@H](C)[C@H](N)C1=N[C@H](C(=O)[*:2])CS1].L.[dE].I.K.[NCCC[C@@H](N[*:1])C(=O)[*:2]].I.[dF].H.[dD].N}$PEPTIDE1,PEPTIDE1,5:R3-11:R2$$$V2.0), for which the Hepatotoxicity entry is “DILI negative (training set)”.
As to `CC(C)n1c(/C=C/C(O)CC(O)CC(=O)O)c(-c2ccc(F)cc2)c2ccccc21` (centres undefined) [FLUVASTATIN], the Hepatotoxicity result (Liver) is listed as “DILI negative (training set)”.
Turning to AUROTHIOGLUCOSE, the Hepatotoxicity result was “DILI positive (test set)”.
Same read-out and setting: as for `CC(C)(O/N=C(\C(=O)N[C@@H]1C(=O)N2C(C(=O)[O-])=C(C[n+]3ccccc3)CS[C@H]12)c1csc(N)n1)C(=O)O` [CEFTAZIDIME], the entry is “DILI negative (test set)”; as for `CS(=O)(=O)O.Cc1ccc(N(CC2=NCCN2)c2cccc(O)c2)cc1` [PHENTOLAMINE MESYLATE], “DILI positive (training set)”.
Take `Nc1ccc(S(=O)(=O)c2ccc(N)cc2)cc1` [DAPSONE]: where the note is “Liver”, the Hepatotoxicity entry is “DILI positive (training set)”.
As to `N[C@@H](Cc1ccc(O)c(O)c1)C(=O)O` [LEVODOPA], the Hepatotoxicity result is on record as “DILI negative (training set)”.
For `COc1ccc([C@@H]2Sc3ccccc3N(CCN(C)C)C(=O)[C@@H]2OC(C)=O)cc1.Cl` [DILTIAZEM HYDROCHLORIDE], the Hepatotoxicity entry was “DILI negative (training set)”.
The same measure, in the same setting: next, `CC(=O)S[C@@H]1CC2=CC(=O)CC[C@]2(C)[C@H]2CC[C@@]3(C)[C@@H](CC[C@@]34CCC(=O)O4)[C@H]12` [SPIRONOLACTONE]: “DILI positive (training set)”; `COC(=O)Nc1nc2ccccc2[nH]1` [CARBENDAZIM]: “DILI positive (training set)”; `Nc1ccc(C(=O)O)c(O)c1` [AMINOSALICYLIC ACID]: “DILI positive (training set)”.
As for `NC(N)=Nc1nc(CSCCC(N)=NS(N)(=O)=O)cs1` [FAMOTIDINE], the Hepatotoxicity result (Liver) is given as “DILI negative (training set)”.
`S=C=Nc1cccc2ccccc12` [1-NAPHTHYLISOTHIOCYANATE]: the Hepatotoxicity result is reported as “DILI positive (test set)”.
The same measure, in the same setting: as for `CC(=O)Nc1cccc(O)c1` [METACETAMOL], the entry is “DILI negative (training set)”.
For the molecule `CNCCC=C1c2ccccc2CCc2ccccc21.Cl` [NORTRIPTYLINE HYDROCHLORIDE], for the setting “Liver”, the Hepatotoxicity entry was “DILI positive (training set)”.
`COC(=O)Nc1nc2ccc(C(=O)c3cccs3)cc2[nH]1` [NOCODAZOLE]: the Hepatotoxicity entry is “DILI negative (training set)”.
The same measure, in the same setting: next, `Cc1ccccc1C(OCCN(C)C)c1ccccc1.O=C(O)CC(O)(CC(=O)O)C(=O)O` (centres undefined) [ORPHENADRINE CITRATE]: “DILI negative (training set)”.
On the same count and under the same terms, as for `CCCN(CCC)S(=O)(=O)c1ccc(C(=O)O)cc1` [PROBENECID], the entry is “DILI negative (test set)”; as for `N[C@@H](Cc1cc(I)c(Oc2ccc(O)c(I)c2)c(I)c1)C(=O)O` [LIOTHYRONINE], “DILI negative (test set)”; as for `C=CCO` [ALLYL ALCOHOL], “DILI positive (test set)”.
On to `CC1=C(CC(=O)O)c2cc(F)ccc2/C1=C\c1ccc([S+](C)[O-])cc1` (centres undefined), for which the Hepatotoxicity entry is “DILI positive (training set)”.
Still for that read-out and setting: as for `CNCC[C@@H](Oc1ccccc1C)c1ccccc1` [ATOMOXETINE], the entry is “DILI positive (test set)”.
Same read-out and setting: next, `CN1Cc2c(N)cccc2C(c2ccccc2)C1` (centres undefined) [NOMIFENSINE]: “DILI positive (training set)”; `C#CCN(C)Cc1ccccc1` [PARGYLINE]: “DILI negative (test set)”.
